Laboratory results: US20190369111A1, “MOLECULAR KINETICS EVALUATION METHOD AND SCREENING METHOD” (Tokyo University of Science Foundation, priority 2016, published 2019)

Target: endogenous wild-type p53 protein (Homo sapiens, UniProt P04637)
Experiment: Degradation of endogenous wild-type p53 protein in HCT116 cells, Western blot analysis
Assay type: cell-based
Design: an endogenous wild-type p53 protein and MDM2 protein in HCT116 cells (human large intestine cancer cells); endogenous in cells; host or cells: HCT116 cells
Settings: 48 hours after addition
Method: HCT116 cells were seeded in a 24-well plate at a cell density of 8×10^4 cells/well, and then cultured under conditions of 37° C. and 5 vol % CO2 for 16 hours.
After 16 hours from cell seeding, TIBC-CANDDY_MLN or TIBC was added to HCT116 cells as follows. As a medium, a serum-free medium (37° C.) in which 1 mass % L-glutamine solution (Sigma-Aldrich) was added to D-MEM (high D-glucose, phenol red, sodium pyruvate (Wako Pure Chemical Industries, Ltd.)) was used. It is noted that the L-glutamine solution was added immediately before use. A DMSO solution containing TIBC-CANDDY_MLN or TIBC was mixed with the medium so that the concentration of DMSO was 1 vol %, and added to each well at 500 μL/well, and cultured under conditions of 37° C. and 5 vol % CO2. As a control, DMSO was used.
The medium was removed 48 hours after addition of TIBC-CANDDY_MLN or TIBC, and then PBS was added to wash the cells. […]
After electrophoresis, proteins were transferred to a PVDF membrane (Immobion™-P, Millipore) under conditions of 100 V and 2 hours using a tank-type blotting device and a transfer buffer (25 mM Tris-HCl, 195 mM glycine, 0.01% SDS, 15% methanol). […] Subsequently, the membrane was treated with a chemiluminescence reagent Immobilon™ Western (Millipore), and then chemiluminescence was detected using a lumino image analyzer LAS-3000 (FUJIFILM Corporation).

endogenous wild-type p53 protein, sequence (P04637 whole entry): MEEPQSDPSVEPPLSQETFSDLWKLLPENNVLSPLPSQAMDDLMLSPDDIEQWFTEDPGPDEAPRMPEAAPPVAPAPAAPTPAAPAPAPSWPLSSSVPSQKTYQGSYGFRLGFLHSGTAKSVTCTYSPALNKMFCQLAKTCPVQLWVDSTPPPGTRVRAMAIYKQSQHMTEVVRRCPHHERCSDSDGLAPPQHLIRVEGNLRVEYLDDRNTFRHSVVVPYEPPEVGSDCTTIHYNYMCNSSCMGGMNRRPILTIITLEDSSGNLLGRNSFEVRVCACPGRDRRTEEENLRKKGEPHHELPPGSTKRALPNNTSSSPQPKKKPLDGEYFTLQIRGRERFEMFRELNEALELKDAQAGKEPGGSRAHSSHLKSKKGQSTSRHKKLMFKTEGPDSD

CC(C)C[C@H](NC(=O)CNC(=O)c1cc(Cl)ccc1Cl)C(=O)NCCCCCCC(=O)Nc1ccc(C(=O)/C=C/c2ccc(I)cc2)cc1 [TIBC-CANDDY_MLN]
amount of endogenous wild-type p53 protein: reduced
